We go through 3 substances from US12576115B2, “Bacterial compositions for treating and preventing halitosis” (Imvela Corp., priority 2023, dated 2026).

A short description of assay [1]: pH reduction of an environment by bacterial strain (Table 1, (b)). The following applies: capable of reducing the pH of an environment from 7.5 or higher to less than 7.5. The source says: (§1) Exemplary bacterial strains determined to be capable of (b) reducing the pH of an environment from 7.5 or higher to less than 7.5; (c) reducing the abundance of one or more VSCs in an environment having a pH of less than 7.5; and/or (d) enhances the reduction of one or more VSCs by another bacterial strain in an environment with a pH of 7.5 or higher, are listed below in Table 1.

Assay [2] relates to volatile sulfur compounds (VSCs). Briefly: VSC reduction in an environment having a pH of less than 7.5 (Table 1, (c)). The following applies: capable of reducing the abundance of one or more VSCs in an environment having a pH of less than 7.5.
Source text: as §1
Some bacterial strains of compositions, nutritional supplements, dental supplements, and food products were identified based on the ability to reduce the abundance of volatile sulfur compounds (VSCs) in an environment, and/or inhibit the production of VSCs by other microorganisms in the environment. VSCs are associated with the unpleasant odor of breath of subjects with halitosis, and reduction in VSC abundance (e.g., by VSC metabolism or inhibition of VSC production) is expected to alleviate this symptom of halitosis. Non-limiting examples of such VSCs include hydrogen sulfide, methyl mercaptan, and dimethyl sulfide, all of which give off strong and unpleasant odors.

For the substance Lactobacillus acidophilus, the “(b) pH reduction” value in assay [1] is reported as “Yes”. For the same substance, the “(c) VSC reduction” value in assay [2] is “Yes”.
Pediococcus acidilactici: the “(b) pH reduction” value in assay [1] is given as “Yes”. Moreover, the “(c) VSC reduction” value in assay [2] was “Yes”.
Regarding Bifidobacterium longum, the “(b) pH reduction” value in assay [1] is “Yes”.
